BindingDB's records for PubMed 38142509 (Sichuan University)

Biological target: Signal transducer and activator of transcription 3 (Homo sapiens, UniProt P40763)
Test: Inhibition of STAT3 (unknown origin)

Signal transducer and activator of transcription 3, sequence (P40763 whole entry): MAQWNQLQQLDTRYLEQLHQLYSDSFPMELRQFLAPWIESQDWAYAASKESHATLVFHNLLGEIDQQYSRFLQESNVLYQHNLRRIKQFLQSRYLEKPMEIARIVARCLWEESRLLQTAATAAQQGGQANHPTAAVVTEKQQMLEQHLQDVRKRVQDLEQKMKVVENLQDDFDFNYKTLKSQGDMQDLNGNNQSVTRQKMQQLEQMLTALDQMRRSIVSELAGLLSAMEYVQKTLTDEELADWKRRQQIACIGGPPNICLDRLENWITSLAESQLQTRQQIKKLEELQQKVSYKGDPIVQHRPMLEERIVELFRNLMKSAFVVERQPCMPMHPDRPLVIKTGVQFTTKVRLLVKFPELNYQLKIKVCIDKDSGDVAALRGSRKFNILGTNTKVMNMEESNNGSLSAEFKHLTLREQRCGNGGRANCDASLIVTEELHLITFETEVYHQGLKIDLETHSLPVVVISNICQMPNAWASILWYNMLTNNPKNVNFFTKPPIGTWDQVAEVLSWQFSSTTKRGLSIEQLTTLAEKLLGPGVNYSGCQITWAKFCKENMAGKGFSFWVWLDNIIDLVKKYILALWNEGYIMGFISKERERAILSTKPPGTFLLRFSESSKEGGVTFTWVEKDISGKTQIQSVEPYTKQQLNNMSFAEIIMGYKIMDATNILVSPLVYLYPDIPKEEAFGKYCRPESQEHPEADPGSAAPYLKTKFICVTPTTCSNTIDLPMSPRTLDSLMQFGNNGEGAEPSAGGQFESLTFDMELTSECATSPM

COC(=O)[C@@]12OC[C@]34[C@H]([C@@H](O)[C@@H]1O)[C@@]1(C)CC(=O)C(O)=C(C)[C@@H]1C[C@H]3OC(=O)[C@H](OC(=O)C=C(C)C(C)(C)OC(C)=O)[C@@H]24
IC50: 2.4 nM
